In a melting point compilation (Tetko et al.; mined from patent text by program, amines drawn as free bases though some values may be those of a salt):

SMILES	melting point [°C]
Cn1c(-c2cccc3[nH]c(-c4ccncc4)cc23)n[nH]c1=O	> 300
CCOC(=O)C(N)Cc1c(OCC)noc1C(=O)O (racemic)	159 to 161
CC(=O)CC(=O)NC1CC(C)(C)NC(C)(C)C1	115
CC1(C)OC(CS(=O)(=O)c2ccc(Cl)cc2)=CC1=O	112 to 113
CC(C)P1(=O)c2ccccc2CN1Cc1ccccc1 (configuration not stated)	145 to 147
CC(=O)NNc1ccc(NC(=S)Nc2ccc(NNC(C)=O)cc2)cc1	234 to 236
COc1ccc2[nH]c(=O)[nH]c2c1	249 to 251
C=CCOc1cc(CNc2nc(C)nc(C)c2Cl)ccc1O	124 to 126
CC(C)NCc1ccc(Cn2ccc(OCc3ccc(F)cc3F)c(Cl)c2=O)cc1	146 to 151
CNC(=O)[C@@H](C[C@H](O)[C@H](CC1CCCCC1)NC(=O)OC(C)(C)C)C(C)C	154 to 157
CNc1nc(C)c(-c2cn3cc(Cl)ccc3n2)s1	242 to 243
C=CCNC(=O)CCNc1nc(NCC=C)nc2c(C)csc12	95 to 96
C[C@H](NC(=O)c1cccc(NS(=O)(=O)CC2CN(C(c3ccc(Cl)cc3)c3ccc(Cl)cc3)C2)c1)C(N)=O	229
O=C1c2ccccc2C2(Cc3ccccc3)NCCN12 (configuration not stated)	115 to 117
CC(=O)NC[C@H]1CN(c2ccc(N3CCC(C#N)(Nc4ccccc4)CC3)c(F)c2)C(=O)O1	81 to 85
COC(=O)c1ccc(-c2ccc3nc(OC)ccc3c2)cc1	158 to 161
C=CCc1cc(C=C(C(=O)OCC)C(=O)OCC)cc(OC)c1OC	43 to 44
Cn1cc(C(N)=O)c(Cl)n1	164 to 166
CSc1ccc(C(C)Nc2nc(N)nc(C(F)(F)F)n2)cc1 (configuration not stated)	111
CCOC(=O)CN(CC(=O)OCC)C(=O)C(=O)c1ccc(OCCCCCCCCCCCCOc2ccccc2)cc1	55 to 56

SMILES	melting point [°C]
Sc1nc(-c2ccc(Cl)c(Cl)c2)c(-c2cccs2)[nH]1	263 to 265
COc1nc(C)cnc1N(C(=O)OCC(C)C)S(=O)(=O)c1cccnc1-c1ccc(C)cc1	143 to 145
Cc1cccc(C(=O)COc2c(C(=O)c3ccc(Cl)c(C)c3Cl)c(C)nn2C)c1	153
CCNc1ccc(Cl)cc1C(=O)c1ccccc1	57 to 58
CCOC(CNC1=Nc2sc(CC)cc2C(c2ccccc2Cl)=NC1)OCC	124 to 127
CCOC(=O)C=Cc1ccc(OC)nc1	49 to 52
COc1cc(C=CC(=O)OC2CC3CC(OC(=O)Cc4cccc(O)c4)CC2N3C)cc(OC)c1OC (configuration not stated)	53 to 57
COC(=O)CCc1cc(C)c(OP(Oc2c(C)cc(CCC(=O)OC)cc2C(C)(C)C)Oc2c(C)cc(CCC(=O)OC)cc2C(C)(C)C)c(C(C)(C)C)c1	113 to 114
CCCCCCCCCCCNC(=O)NCCCC	70
COc1nc(NC(=O)NS(=O)(=O)c2ccccc2S(C)(=O)=O)nc(N(C)C)n1	192 to 195
O=c1[nH][nH]c(=O)n1-c1cc(Cl)cc(Cl)c1	260
CC12C(=CCC3C1CCC1(C)C3CCC13OCCO3)CC(O)CC2O (configuration not stated)	205 to 206
CCN(C1CC(C)(C)Oc2ccc(OCc3cc(OC)ccn3)cc21)S(C)(=O)=O (configuration not stated)	87 to 89
CON=C(C(C)=NN=Cc1ccccc1N(OC)C(=O)OC)c1ccc(F)cc1	88 to 90
CC(=O)Nc1ccc(F)cc1OCCOc1ccc([N+](=O)[O-])cc1F	192 to 194
CCCCc1c(OC)cc(C(=O)O)nc1Cl	104 to 106
CC(C)C(C(=O)O)c1ccc(O)cc1 (configuration not stated)	172 to 174
Nc1ccc([N+](=O)[O-])cc1-c1cc([N+](=O)[O-])ccc1N	315 to 317
Cc1nc(Sc2ncccc2C(=O)O)sc1CC(=O)O	233 to 235

Now from value to compound:

melting point [°C]	SMILES
201 to 203	CCN(C)C(=O)c1cnn(C)c1C(=O)Nc1ccn2nc(N3CCOCC3)nc2c1
186 to 188	NC[C@@H]1CC[C@H](C(=O)O)C1 (relative stereo)
182 to 185	N#Cc1cnn2c1N(C(=O)CN1CCN(C(=O)Nc3cccc(Cl)c3)CC1)CC=C2c1cccc(C(F)(F)F)c1
74 to 75	O=S(=O)(Nc1cccc(CCOCc2ccc(-c3ccc(Cl)c(Cl)c3)cc2)c1)C(F)(F)F
127 to 129	CN(Cc1cc2c(=O)c(C(=O)NCc3ccc(Cl)cc3)cn(C)c2o1)CC(O)c1ncccn1 (single isomer, unassigned; (+))
290 to 291	O=C1CC(c2ccccc2O)=Nc2ccc(N3CCOCC3)cc21
198 to 200	CN(Cc1cccc2c1CN(C1CCC(=O)NC1=O)C2=O)C(=O)Nc1cccc(C(F)(F)F)c1 (configuration not stated)
297 to 298	CC1CCc2c(Cl)c(F)cc3c(=O)c(C(=O)O)cn1c23 (configuration not stated)
120 to 121	Cc1ccccc1N1CCc2c(N(C)C)nc3c(C)cccc3c21
134	COc1ccc2c(c1)CN(Cc1ccccc1)CC(=O)N2
104 to 106	CCC(=O)c1ccc(CN2C(=O)c3ccccc3C2=O)s1
83	COCCCN1C(=O)CS(=Cc2ccccc2Cl)C1=O (configuration not stated)
212 to 213	CCN1CCN(c2ccnc(-c3nc(=O)c4ccccc4s3)c2)C1=O
204 to 207	CNC(=O)c1cc(N2CCOCC2)cc([N+](=O)[O-])c1
56 to 61	CCOCc1nc(C(C)(C)O)c(C(=O)OCOC(=O)C(C)(C)C)n1Cc1ccc(-c2ccccc2-c2nnn[nH]2)cc1
48 to 50	Fc1cc(Cl)cc(Cn2cccc2)c1
105 to 106	O=C1c2ccccc2COc2cc(Cl)ccc21
193 to 195	COCC1c2ccccc2CCN1c1nc(Nc2ccc(F)cc2)nc(C)c1C (configuration not stated)
119 to 120	CC(=O)Nc1ccc(CC[C@](O)(CC(=O)O)C(C)C)cc1
146	COC(=O)Cc1n[nH]c2ccccc12

melting point [°C]	SMILES
55 to 57	Cc1oc(-c2ccccc2)nc1CC=Cc1ccc(CC2SC(=O)NC2=O)cc1 (configuration not stated)
51 to 53	O=Cc1cccc(OCCc2coc(-c3ccccc3)n2)c1
125	CCC(=O)OC(C)c1ccc(-c2ccc(OCc3ccccc3)cc2)cc1 (single isomer, unassigned; (+))
154	COc1cc2c(c(C(=O)c3ccccc3)c1)NC(=O)C2
187 to 189	c1ccc(C(CCOc2ccc(Cc3nnn[nH]3)cc2)(c2ccccc2)c2ccccc2)cc1
181 to 184	O=c1ccccn1C1c2cc(S(=O)c3ccccc3)ccc2OCCC1O (configuration not stated)
110 to 111	COC(=O)c1cccc(N)c1NCc1ccc(-c2ccccc2C#N)cc1
230 to 233	N#CC(C(=O)Nc1ccccc1)C(=O)c1nn(-c2ccccc2)c2c1CSc1ccc(NC(=O)CCC(=O)O)cc1-2 (configuration not stated)
87 to 89	CC1C(=O)Oc2cc(C3CCCCC3)ccc21 (configuration not stated)
134 to 136	COCc1ccoc1-c1cccc(-n2c(N)nc3ccccc32)c1
204 to 205	CC(=O)NCC1CC(c2ccc(N3CCS(=O)CC3)c(F)c2)=NO1 (configuration not stated)
191 to 193	CCCc1ccccc1OCCCOc1ccc2c(=O)cc(-c3nnn[nH]3)oc2c1
194	Cc1c(C(=O)Nc2ccc(OC3CCN(Cc4ccccc4)CC3)c(C#N)c2)cnn1-c1ccc(Cl)cc1
260 to 262	CC(C)CNC(=O)C(C)NC(=O)C(C)NC(=O)C(C)NC(=O)OCc1ccccc1 (configuration not stated)
108 to 111	Cc1ccccc1/C=C/c1c(C(C)C)nc(C(C)C)c(CO)c1-c1ccc(F)cc1
83 to 85	CC(=O)NC(=O)OC[C@]1(C)S[C@@H]2[C@H](NC(=O)COc3ccccc3)C(=O)N2[C@H]1C(=O)OCc1ccc([N+](=O)[O-])cc1
174 to 176	NC(=O)CN1CCC(c2nn(-c3ccc(C(F)(F)F)cc3)c3cc(F)ccc23)CC1
235 to 237	Cc1nc(-n2ccc(-c3ccccc3)cc2=O)sc1C(=O)NCc1ccccc1
108 to 113	CCCSc1nc(N)c2ncn(C3C=CCCC3)c2n1 (configuration not stated)
90 to 104	CCC(N)=C(C(C)=O)c1[nH]c2ccccc2c1C(O)CN(C)C (configuration not stated)

melting point [°C]	SMILES
222 to 224	O=C(O)COC1(Cl)C=C2ONC(c3ccccc3F)=C2C(Cl)=C1Cl (configuration not stated)
112 to 116	Oc1ccc(-c2c3ccccc3cc3sc4ccccc4c23)cc1
228 to 230	COC(=O)C1=C(C)NC(C)=C(C(=O)N2CCC3(CC2)CC(=O)N(OC)C3=O)C1c1cccc([N+](=O)[O-])c1 (configuration not stated)
127	Cc1cc(C)cc(NC(=N)Nc2ccccc2C(F)(F)F)c1
102 to 104	N#CC(CC(=O)CCl)(c1ccccc1)c1ccccc1
169 to 172	Nc1ccc2c(c1)-c1ccccc1S2=O (configuration not stated)
208 to 210	O=C(O)c1cccc(CC2COc3ccc(OCc4nc5cc(F)ccc5s4)cc3C2O)c1 (configuration not stated)
132 to 138	O=C(O)c1ccccc1-n1nc(-c2ccccc2O)nc1-c1ccccc1O
119 to 120	CNS(=O)(=O)c1cc(C(=O)NNC(=O)c2occ(-c3ccccc3)c2-c2ccccc2)ccc1O
125 to 130	CC(=O)N1Cc2cccn2N(C)c2ccncc21
156 to 158	C(=Cc1cc(OCc2ccccc2)cc(OCc2ccccc2)c1)c1ccc(OCc2ccccc2)cc1
137	COc1c(CC(C)(C)C(=O)O)n(Cc2ccc(Cl)cc2)c2ccc(O)cc12
204 to 206	CCCOc1ccccc1-c1nc2nc(NCCO)ncc2c(=O)[nH]1
44 to 46	CCCCCCCCCCCCc1ccccc1C(SCCC(=O)O)C(=O)O (configuration not stated)
155 to 157	Cn1ncnc1COc1nn2c(-c3ccccc3Cl)nncc2c1-c1ccccc1F
162 to 163	OC[C@@H]1Cc2cc3ccccc3n2C[C@H]1CO (relative stereo)
62 to 64	OCCN1CCC(Cc2ccccc2)CC1
178 to 182	CC(=O)N1CCCc2c1n(-c1ccccc1)c1c(c2=O)CCc2ccccc2-1
